Measured values taken from patent US11773078B2, “Furin inhibitors” (Glaxosmithkline Intellectual Property Development Limited, priority 2018, dated 2023).
Counter-ions that a name gives are not always drawn.

Tests used:
[1] = molecular target: T1, furin (endogenous protease) in U20S cells (Homo sapiens, UniProt P09958); assay: Furin cell-based assay (image-based, Golgi-targeted GFP with BMP10 furin/PCSK cleavage site); details: 24-hour incubation, read-out: furin golgi cell pXC50 (converted);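 further: Read-out is mean GFP fluorescence of Golgi puncta per cell by high-content imaging, retained when furin inhibited, over an eleven-point 0.00017–10 µM series, four-parameter fit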
T1 construct: the endogenous protease cleaves GFP; endogenous in cells; host or cells: U2OS cells transduced with a BacMam reporter

[2] = molecular target: T2, Furin (108-574-Tev-Flag-His) enzyme (Homo sapiens, UniProt P09958); assay: Furin enzyme assay; type: biochemical
T2 construct: Furin (108-574-Tev-Flag-His) enzyme was expressed and purified from CHO cells; TEV cleavage site (C); FLAG (C); His (C); made in house; host or cells: CHO cells
How it was run: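 CHO-expressed, purified furin construct at 40 pM in 100 mM HEPES pH7.5, 1 mM CaCl2, 0.005% Triton X-100. Eleven-point 1:3 series, 0.00017–10 μM final, incubated 2 h at room temperature and read on Envision. pXC50 from four-parameter fit.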

T1 sequence (P09958 108-794): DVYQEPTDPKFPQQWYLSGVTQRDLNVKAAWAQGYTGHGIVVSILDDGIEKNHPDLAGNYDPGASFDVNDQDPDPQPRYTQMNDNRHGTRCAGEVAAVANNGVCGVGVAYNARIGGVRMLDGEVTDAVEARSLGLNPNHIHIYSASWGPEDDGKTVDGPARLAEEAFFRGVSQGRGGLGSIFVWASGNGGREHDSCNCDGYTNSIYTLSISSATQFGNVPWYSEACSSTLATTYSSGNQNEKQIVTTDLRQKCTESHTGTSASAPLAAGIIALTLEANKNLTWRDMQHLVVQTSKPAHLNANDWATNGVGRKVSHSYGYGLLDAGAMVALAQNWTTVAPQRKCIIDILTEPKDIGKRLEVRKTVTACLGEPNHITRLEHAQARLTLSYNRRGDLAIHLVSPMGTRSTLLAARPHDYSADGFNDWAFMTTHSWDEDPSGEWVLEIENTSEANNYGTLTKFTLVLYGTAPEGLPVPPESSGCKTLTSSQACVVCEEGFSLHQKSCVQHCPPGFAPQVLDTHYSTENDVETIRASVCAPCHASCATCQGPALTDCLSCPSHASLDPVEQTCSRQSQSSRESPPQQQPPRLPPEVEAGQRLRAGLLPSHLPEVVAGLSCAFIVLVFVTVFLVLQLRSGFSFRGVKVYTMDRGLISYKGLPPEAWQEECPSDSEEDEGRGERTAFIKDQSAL
T2 sequence (P09958 108-574): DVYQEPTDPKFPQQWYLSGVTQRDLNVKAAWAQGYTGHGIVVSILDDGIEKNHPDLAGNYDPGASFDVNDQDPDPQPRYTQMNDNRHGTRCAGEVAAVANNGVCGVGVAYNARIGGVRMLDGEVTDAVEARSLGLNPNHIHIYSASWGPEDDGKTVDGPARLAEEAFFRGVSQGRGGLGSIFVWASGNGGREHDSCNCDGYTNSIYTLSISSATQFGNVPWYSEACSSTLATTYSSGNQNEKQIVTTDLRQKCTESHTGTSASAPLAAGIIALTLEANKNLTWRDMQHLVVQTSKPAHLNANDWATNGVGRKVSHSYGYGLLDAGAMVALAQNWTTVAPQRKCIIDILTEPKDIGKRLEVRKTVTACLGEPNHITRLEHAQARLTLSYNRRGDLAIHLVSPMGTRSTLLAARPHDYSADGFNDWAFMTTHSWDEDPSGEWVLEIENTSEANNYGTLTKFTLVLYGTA

With COC(=O)NCC1CCN(Cc2cc(Oc3ccc(N4CCNCC4)nc3)nc(-c3cc(Cl)cc(Cl)c3)c2)CC1 [Example 76, Methyl 1(1-((2-(3,5-dichlorophenyl)-6-((6-(piperazin-1-yl)pyridin-3-yl)oxy)pyridin-4-yl)methyl)piperidin-4-yl)methyl)carbamate, 4 hydrochloride] the EC50 [1] was 10 nM and the “furin enzyme pIC50” value [2] was 8.4.

For CNC(=O)OCC1CCN(Cc2cc(Oc3ccc(N4CCN(CCC(=O)O)CC4)nc3)nc(-c3cc(Cl)cc(Cl)c3)c2)CC1 [Example 77, 3-(4-(5-((6-(3,5-Dichlorophenyl)-4-((4-(((methylcarbamoyl)oxy)methyl)piperidin-1-yl)methyl)pyridin-2-yl)oxy)pyridin-2-yl)piperazin-1-yl)propanoic acid, 4 hydrochloride], the EC50 [1] was 63.1 nM and the “furin enzyme pIC50” value [2] was 9.1.

In the case of NC(=O)CCN1CCN(Cc2cc(Oc3cnc(N4CCN(CCC(=O)O)CC4)nc3)nc(-c3cc(Cl)cc(Cl)c3)c2)CC1 [Example 78, 3-(4-(5-((4-((4-(3-Amino-3-oxopropyl)piperazin-1-yl)methyl)-6-(3,5-dichlorophenyl)pyridin-2-yl)oxy)pyrimidin-2-yl)piperazin-1-yl)propanoic acid], the EC50 [1] was 63.1 nM and the “furin enzyme pIC50” value [2] was 8.

NC(=O)CN1CCN(Cc2cc(Oc3cnc(N4CCN(CCC(=O)O)CC4)nc3)nc(-c3cc(Cl)cc(Cl)c3)c2)CC1 [Example 79, 3-(4-(5-((4-((4-(2-amino-2-oxoethyl)piperazin-1-yl)methyl)-6-(3,5-dichlorophenyl)pyridin-2-yl)oxy)pyrimidin-2-yl)piperazin-1-yl)propanoic acid] was tested, and the EC50 [1] was 79.4 nM and the “furin enzyme pIC50” value [2] was 8.3.

In the case of CS(=O)(=O)N[C@H]1[C@@H]2CCN(Cc3cc(Oc4cnc(N5CCN(CCC(=O)O)CC5)nc4)nc(-c4cc(Cl)cc(Cl)c4)c3)CC[C@@H]21 [Example 80, 3-(4-(5-((6-(3,5-dichlorophenyl)-4-(((1R,7S,8r)-8-(methylsulfonamido)-4-azabicyclo[5.1.0]octan-4-yl)methyl)pyridin-2-yl)oxy)pyrimidin-2-yl)piperazin-1-yl)propanoic acid], the EC50 [1] was 7.94 nM and the “furin enzyme pIC50” value [2] was 9.5.

With CC(CCN1CCN(c2ncc(Oc3cc(CN4CC[C@@H]5[C@H](CC4)[C@H]5NS(C)(=O)=O)cc(-c4cc(Cl)cc(Cl)c4)n3)cn2)CC1)C(=O)O (stereo partly drawn) [Example 81, 4-(4-(5-((6-(3,5-dichlorophenyl)-4-(((1R,7S,8r)-8-(methylsulfonamido)-4-azabicyclo[5.1.0]octan-4-yl)methyl)pyridin-2-yl)oxy)pyrimidin-2-yl)piperazin-1-yl)-2-methylbutanoic acid] the EC50 [1] was 6.31 nM and the “furin enzyme pIC50” value [2] was 9.4.

In the case of CC(=O)N[C@H]1[C@@H]2CCN(Cc3cc(Oc4cnc(N5CCN(CCC(C)C(=O)O)CC5)nc4)nc(-c4cc(Cl)cc(Cl)c4)c3)CC[C@@H]21 (stereo partly drawn) [Example 82, 4-(4-(5-((4-(((1R,7S,8r)-8-acetamido-4-azabicyclo[5.1.0]octan-4-yl)methyl)-6-(3,5-dichlorophenyl)pyridin-2-yl)oxy)pyrimidin-2-yl)piperazin-1-yl)-2-methylbutanoic acid], the EC50 [1] was 5.01 nM and the “furin enzyme pIC50” value [2] was 9.3.

For CC(CCN1CCN(c2ncc(Oc3cc(CN4CCCC4)cc(-c4cc(Cl)cc(Cl)c4)n3)cn2)CC1)C(=O)O (stereo not shown) [Example 83, 4-(4-(5-((6-(3,5-dichlorophenyl)-4-(pyrrolidin-1-ylmethyl)pyridin-2-yl)oxy)pyrimidin-2-yl)piperazin-1-yl)-2-methylbutanoic acid], the EC50 [1] was 50.1 nM and the “furin enzyme pIC50” value [2] was 8.9.

For O=C(O)CCN1CCN(c2ncc(Oc3cc(CN4CCC(CNC(=O)C5CC5)CC4)cc(-c4cc(Cl)cc(Cl)c4)n3)cn2)CC1 [Example 84, 3-(4-(5-((4-((4-(cyclopropanecarboxamidomethyl)piperidin-1-yl)methyl)-6-(3,5-dichlorophenyl)pyridin-2-yl)oxy)pyrimidin-2-yl)piperazin-1-yl)propanoic acid], the EC50 [1] was 7.94 nM and the “furin enzyme pIC50” value [2] was 9.3.

With CP(C)(=O)CC1CCN(Cc2cc(Oc3ccc(N4CCN(CCC(=O)O)CC4)nc3)nc(-c3cc(Cl)cc(Cl)c3)c2)CC1 [Example 85, 3-(4-(5-((6-(3,5-dichlorophenyl)-4-((4-((dimethylphosphoryl)methyl)piperidin-1-yl)methyl)pyridin-2-yl)oxy)pyridin-2-yl)piperazin-1-yl)propanoic acid] the EC50 [1] was 158 nM and the “furin enzyme pIC50” value [2] was 8.1.

NC(=O)CC1CCN(Cc2cc(Oc3cnc(N4CCNCC4)nc3)nc(-c3cc(Cl)cc(Cl)c3)c2)CC1 [Example 86, 2-(1-((2-(3,5-Dichlorophenyl)-6-((2-(piperazin-1-yl)pyrimidin-5-yl)oxy)pyridine-4-yl)methyl)piperidin-4-yl)acetamide, 4 hydrochloride] was tested, and the EC50 [1] was 10 nM and the “furin enzyme pIC50” value [2] was 8.9.

CN1CCN(c2ncc(Oc3cc(CN4CCC(CCS(N)(=O)=O)CC4)cc(-c4cc(Cl)cc(Cl)c4)n3)cn2)CC1 [Example 87, 2-(1-((2-(3,5-Dichlorophenyl)-6-((2-(4-methylpiperazin-1-yl)pyrimidin-5-yl)oxy)pyridin-4-yl)methyl)piperidin-4-yl)ethanesulfonamide, 4 hydrochloride] was tested, and the EC50 [1] was 3.98 nM and the “furin enzyme pIC50” value [2] was 9.

For CC(=O)NCC1CCN(Cc2cc(Oc3cnc(N4CCN(CCC(N)=O)CC4)nc3)nc(-c3cc(Cl)cc(Cl)c3)c2)CC1 [Example 88, 3-(4-(5-((4-((4-(Acetamidomethyl)piperidin-1-yl)methyl)-6-(3,5-dichlorophenyl)pyridin-2-yl)oxy)pyrimidin-2-yl)piperazin-1-yl)propanamide], the EC50 [1] was 5.01 nM and the “furin enzyme pIC50” value [2] was 9.1.

For CC(=O)NCC1CCN(Cc2cc(Oc3ccc(N4CCNCC4)nc3)nc(-c3cc(Cl)cc(Cl)c3)n2)CC1 [Example 89, N-((1-((2-(3,5-Dichlorophenyl)-6-((6-(piperazin-1-yl)pyridin-3-yl)oxy)pyrimidin-4-yl)methyl)piperidin-4-yl)methyl)acetamide, 4 hydrochloride], the EC50 [1] was 12.6 nM and the “furin enzyme pIC50” value [2] was 8.

CC(=O)NCC1CCN(Cc2cc(-c3cc(Cl)cc(Cl)c3)nc(Oc3ccc(N4CCNCC4)nc3)n2)CC1 [Example 90, N-((1-((6-(3,5-Dichlorophenyl)-2-((6-(piperazin-1-yl)pyridin-3-yl)oxy)pyrimidin-4-yl)methyl)piperidin-4-yl)methyl)acetamide] was tested, and the EC50 [1] was 7.94 nM and the “furin enzyme pIC50” value [2] was 8.5.

For CC(=O)NCC1(O)CCN(Cc2cc(Oc3cnc(N4CCNCC4)c(F)c3)nc(-c3cc(Cl)cc(Cl)c3)c2)CC1 [Example 91, N-((1-((2-(3,5-Dichlorophenyl)-6-((5-fluoro-6-(piperazin-1-yl)pyridin-3-yl)oxy)pyridin-4-yl)methyl)-4-hydroxypiperidin-4-yl)methyl)acetamide, 4 hydrochloride], the EC50 [1] was 39.8 nM and the “furin enzyme pIC50” value [2] was 8.4.

CC(=O)NCC1CCN(Cc2cc(Oc3cnc(N4CCNCC4)nc3)nc(-c3cc(Cl)cc(Cl)c3)c2)CC1 [Example 92, N-((1-((2-(3,5-Dichlorophenyl)-6-((2-(piperazin-1-yl)pyrimidin-5-yl)oxy)pyridin-4-yl)methyl)piperidin-4-yl)methyl)acetamide] was tested, and the EC50 [1] was 3.16 nM and the “furin enzyme pIC50” value [2] was 8.9.

With CC(=O)NCC1CCN(Cc2cc(Oc3cnc(N4CCN(CCO)CC4)nc3)nc(-c3cc(Cl)cc(Cl)c3)c2)CC1 [Example 93, N-((1-((2-(3,5-dichlorophenyl)-6-((2-(4-(2-hydroxyethyl)piperazin-1-yl)pyrimidin-5-yl)oxy)pyridin-4-yl)methyl)piperidin-4-yl)methyl)acetamide, 4 hydrochloride] the EC50 [1] was 5.01 nM and the “furin enzyme pIC50” value [2] was 8.9.

CNC(=O)CCN1CCN(c2ncc(Oc3cc(CN4CCC(CNC(C)=O)CC4)cc(-c4cc(Cl)cc(Cl)c4)n3)cn2)CC1 [Example 94, 3-(4-(5-((4-((4-(Acetamidomethyl)piperidin-1-yl)methyl)-6-(3,5-dichlorophenyl)pyridin-2-yl)oxy)pyrimidin-2-yl)piperazin-1-yl)-N-methylpropanamide, 4 hydrochloride] was tested, and the EC50 [1] was 5.01 nM and the “furin enzyme pIC50” value [2] was 8.9.

With CC(=O)NCC1CCN(Cc2cc(Oc3cnc(N4CCN(C(C)CC(N)=O)CC4)nc3)nc(-c3cc(Cl)cc(Cl)c3)c2)CC1 (stereo not shown) [Example 95, 3-(4-(5-((4-((4-(Acetamidomethyl)piperidin-1-yl)methyl)-6-(3,5-dichlorophenyl)pyridin-2-yl)oxy)pyrimidin-2-yl)piperazin-1-yl)butanamide, 4 hydrochloride] the EC50 [1] was 1.58 nM and the “furin enzyme pIC50” value [2] was 9.9.

With CC(=O)NCC1CCN(Cc2cc(Oc3cnc(N4CCN(CCCC(N)=O)CC4)nc3)nc(-c3cc(Cl)cc(Cl)c3)c2)CC1 [Example 96, 4-(4-(5-((4-((4-(Acetamidomethyl)piperidin-1-yl)methyl)-6-(3,5-dichlorophenyl)pyridin-2-yl)oxy)pyrimidin-2-yl)piperazin-1-yl)butanamide] the EC50 [1] was 1.58 nM and the “furin enzyme pIC50” value [2] was 9.

CNC1CCN(c2ccc(Oc3cc(CNCCOC)cc(-c4cc(Cl)cc(Cl)c4)c3)cn2)CC1 [Example 97, 1-(5-((3′,5′-Dichloro-5-(((2-methoxyethyl)amino)methyl)-[1,1′-biphenyl]-3-yl)oxy)pyridin-2-yl)-N-methylpiperidin-4-amine] was tested, and the EC50 [1] was 25.1 nM and the “furin enzyme pIC50” value [2] was 8.4.

CNCc1cc(Oc2ccc(N3CCNCC3)nc2)cc(-c2cc(Cl)cc(Cl)c2)c1 [Example 98, 1-(3′,5′-Dichloro-5-((6-(piperazin-1-yl)pyridin-3-yl)oxy)-[1,1′-biphenyl]-3-yl)-N-methylmethanamine, 3 hydrochloride] was tested, and the EC50 [1] was 39.8 nM and the “furin enzyme pIC50” value [2] was 8.7.
